Measurements taken from patent publication US20080269161A1, “Compositions and Methods Relating to Mitochondrial Hyperpolarization in Neurological Disease” (priority 2005, published 2008).
Entries after “also recorded” stand apart in the source; their conditions may differ. Read-outs that look alike come from different tables or passages of the source.

Legend:
[1] = system: mitochondrial membrane potential of rat cortical neurons; assay type: cell-based
Method: Curve fits are non-formulaic software interpolations of the data points.
Changes in mitochondrial function that could be associated with the increased vesicular activity were evaluated. Mitochondria generate the energy for synaptic transmission in the form of ATP, and as a byproduct of this oxidative phosphorylation, they are also one of the primary producers of intracellular ROS. Two key mitochondrial parameters were examined in response to Tat and PAF: 1) mitochondrial membrane potential (ΔΨm) [as assessed by mitochondrial uptake of the lipophilic cationic dyes tetramethylrhodamine ethyl or methyl ester (TMRE or TMRM respectively)], and 2) ATP production (as measured by luciferase assay). The electronegative mitochondrial membrane potential provides the driving force for calcium buffering and ATP production by the mitochondria, and as such, ΔΨm is frequently used as an indicator of mitochondrial health and energetic capacity. Moreover, fluctuations in ΔΨm can trigger mitochondrial release of pro-apoptotic factors, an event most frequently associated with a loss of ΔΨm.
Monitoring alterations in ΔΨm with TMRM: In the relevant methods described herein, changes in mitochondrial membrane potential (ΔΨm) in response to Tat or PAF treatment is assessed by TMRM, which must equilibrate across the plasma membrane before entering the mitochondria; and in whole cell applications dye concentration in the mitochondria is dependent on both plasma membrane potential (ΔΨp) and AΨm. At sufficiently low dye concentrations (TMRM =1 nM, i.e. high cell/dye ratio) and normal membrane potentials, ≧95% of the dye is in the mitochondria, and ≦1% in the media, which results in an approximately 100× sensitivity of the dye to ΔΨm over ΔΨp, given equivalent changes in plasma or mitochondrial membrane potential [Rottenberg, H. and S. Wu, Biochim Biophys Acta, 1998. 1404(3): p. 393-40].
For these methods, primary rodent neurons are treated with reagent under normal culture conditions for the indicated time period, followed by removal of the media, 1×2 minute wash in pre-warmed 37° C. HBSS plus 10 mM glucose and 10 mM HEPES (HBSS+), then incubation in HBSS+ with 1 nM TMRE/M. Following equilibration of the dye for 20 minutes to ensure distribution across the mitochondrial membrane, the cells are imaged while remaining in the 1 nM TMRE/M solution, as is necessary for a continued dye equilibrium state. Random field images are taken using an Olympus IX-70 microscope and 40× objective (fluorescent excitation: 545; emission: 610) and Apogee KX32ME CCD camera, and the mean relative fluorescent unit (RFU) value of the neuronal soma and processes (excluding mitochondria deficient regions) is quantified using Scanalytics IPLab software.

cortical cultures = assay: Tat-induced apoptotic cell death in cortical cultures
Method: Quantifying Cell Death: Cell death is assessed by visualizing fragmented DNA per the TUNEL method as described previously as well [Perry, S. W., et al., J Neurosci Res, 2004. […] Briefly, after treatment in 24 well plates, cells are fixed with Histochoice MB Tissue Fixative (Amresco) then TUNEL-labeled with the ApopTag kit (Chemicon) according to kit instructions. Cells are visualized under Hoffman modulation contrast optics using a 40× objective, and images taken of ten random fields per well from 3 replicate wells per condition. Data is expressed as percent Apoptag-positive neurons [(# Apoptag positive neurons/)(Total neurons))33 100] (or Trypan blue positive neurons where applicable) per field, then field values averaged for a mean cell death value per well. Mean values from 3 or more (see “power” calculations below) wells are averaged for a final mean cell death value for each condition±SEM; the analyses is made without knowledge of the treatment group.

[2] = system: iNOS expression in human primary monocytes; assay: Tat-induced iNOS expression in primary monocytes; assay type: cell-based; conditions: for prevention of the anti-inflammatory effects of CGS21680 or IB-MECA, respectively: Tat-treated monocytes, iNOS/NO
Method: (§1) The effect of adenosine receptor activation on Tat-induced upregulation of iNOS expression and NO release was then determined. […] In contrast, incubation of cells with 1 μM R-PIA (an adenosine A1 receptor agonist) had no effect on Tat-induced iNOS expression or NO release (FIG. 11), implicating the A2A and A3 receptor subtypes in this anti-inflammatory effect. ZM241385 (an A2AR antagonist) or MRS 1220 (an A3R antagonist) could prevent the anti-inflammatory effects of CGS21680 or IB-MECA, respectively.

[3] = system: NO release by human primary monocytes; assay: Tat-induced nitric oxide release by primary monocytes (Griess reaction); assay type: cell-based; conditions: co-treatment with Tat, 8 h; R-PIA 1 μM
Method: Human primary monocytes were treated with Tat in the presence or absence of the indicated adenosine receptor agonists for 8 h, and nitric oxide levels in the culture medium of the cells were then quantitated using the Griess reaction (Active Motif). Data represent mean+SEM of three experiments.
as §1

[4] = system: rat cerebellar granule neurons (CGNs); assay: Tat-induced apoptosis of cerebellar granule neurons (TUNEL); assay type: cell-based; conditions: Tat 500 nM, 48 h
Method: (§2) CGNs were exposed to HIV-1 Tat (Tat, 500 nM), or vehicle alone (NT), in the presence or absence of the A2A antagonist, ZM241385. After 48 h, cultures were analyzed for the percentage of apoptotic cells using the TUNEL assay. Data represent mean±SEM for one experiment that was performed in triplicate; data are representative of two independent experiments.
as §2, with “(No Tat),” for “(NT),”, “A2AR antagonists, ATL455 and ZM241385, or the A2AR agonists ATL313 and CGS21680.” for “A2A antagonist, ZM241385.”
(1) Primary rat cerebellar granule neurons (CGNs). CGNs represent a highly homogenous population of primary neurons which are susceptible to Tat and PAF-mediated cell killing and have been used in many of previous studies. CGN cells are isolated according to published procedures [Maggirwar, S. B., et al. 1999. J Neurochem 73:578-86] [Tong, N., et al. 2001. Eur J Neurosci 13:1913-22].
78(4): p. […] 22(6): p. 1102-6].
Primary rat cerebellar granule neurons (CGNs) were exposed to a neurotoxic concentration of HIV-1 Tat, in the presence or absence of an A2AR antagonist (ZM241385). […] It is important to note that CGNs express adenosine A2A receptors [Vacas, J., et al. 2003. Brain Res 992:272-280].
Primary cultures of rat cerebellar granule neurons (CGNs) were exposed to HIV-Tat ([…]) alone or together with increasing doses of the A2AR antagonist ATL-455 or A2A agonists ATL313 or CGS21680. Cells are treated with the test compounds for defined time intervals of up to 48 hours (1, 4, 8, 24, and 48 hours).

[5] = system: CA1 pyramidal neurons in hippocampal slices; design: species or system rodent
Method: CA1 pyramidal neurons were exposed to 1 μM cPAF or vehicle for 30-60min and simultaneously imaged and recorded by whole-cell patch clamp before and after delivery of a high-frequency stimulus (HFS: three 1s, 100 Hz trains, every 20 s) applied to Schaffer collateral axons via a bipolar stimulating electrode planted in the stratum radiatum. (A) Dendrite beading in a cPAF-exposed cell 45min after HFS, with no disruption of dendrite or spine morphology in control cells. […] (C) Excitatory synaptic transmission between Shaffer collateral axons and CA1 pyramidal neurons is strongly potentiated following HFS in control slices. […] (EPSP traces at baseline and 40 min from representative control cell and cPAF-treated beaded cell are at right.) […]
Explant hippocampal slices are exposed to HIV-1 neurotoxins±agents that reverse mitochondrial hyperpolarization. Beading and LTP are then be measured:
Hippocampal slice preparation: Brains from anesthetized P14-28 rodents are rapidly removed and cooled in sucrose based artificial cerebrospinal fluid (ACSF) containing in mM: 110 sucrose, 60 NaCl, 3 KCl, 1.25 NaH2PO4, 28 NaHCO3, 10 D-glucose, 0.5 CaCl2, 7 MgSO4, 0.6 ascorbate. The brains are blocked and fixed to a specimen stage with cyanoacrylate. Coronal slices (250-400 μm in thickness) are cut with a vibroslicer (World Precision Instruments, Fla., USA) equipped with a Peltier cooling system. The middle four to six slices of each hippocampus (with the entorhinal cortex removed) are placed into a holding chamber prior to use.
Measuring dendritic beading and postsynaptic potentials in single CA1 cells in hippocampal slices: Dendritic arbors of individual CA1 pyramidal cells are imaged while simultaneously recording excitatory postsynaptic potentials in the same cell by patch clamp recordings in whole-cell configuration. Recording pipettes ([…] resistance) are pulled from 1.5 mm borosilicate glass using a horizontal Flaming/Brown micropipette puller (Sutter Instrument Co, Calif.), fire-polished, and filled with intracellular recording solution (in mM: KCl 20, potassium gluconate 130, EGTA 0.5, HEPES 10, MgSO4 2, ATP 2.5, GTP 0.5, pH 7.3). In order to visualize dendrites of the recorded cell, Alexa 568 hydrazide (30 μM) is included in the recording pipette and is injected by small negative current pulses for 15-20 min prior to recording in order to fill the dendritic arbor. Hippocampal slices are bathed in artificial CSF (containing, in mM: NaCl 125, KCl 2.5, NaH2PO4 1.25, NaHCO3 25, CaCl2 2, MgCl2 1, D-glucose 25, oxygenated and buffered with 5% CO2). Membrane potentials of CA1 pyramidal cells are recorded in current clamp mode, and postsynaptic potentials are evoked by test pulses of constant-current stimulation applied via a bipolar stimulating electrode placed 50-200 μm away in the stratum radiatum. Bicuculline (10 μM) is included in the bath to isolate excitatory postsynaptic potentials. After at least 10 min of consistent baseline recording, a high-frequency LTP induction stimulus (HFS, consisting of four 1 s, 100 Hz trains delivered every 15 s) is applied. EPSPs are recorded for 60 min following HFS. At the same time, dendrites are imaged at 40× magnification by fluorescence microscopy, using a shutter to limit fluorescent light exposure and prevent phototoxic injury to the slice. Serial images of dendrites are compared to detect development of focal swellings along dendritic shafts following HFS. Cells are scored as beaded if swellings develop along any of their dendrites.
Field potential recording and induction of LTP in hippocampal slices: Single-cell recordings are complemented by extracellular field potential recordings: while single cell recordings allow correlation of electrophysiologic data with dendritic beading in the same cell, extracellular recordings sample responses from populations of dendrites and are less invasive. […]

Compound: CCCCNC(=O)NS(=O)(=O)c1ccc(C)cc1 [Tolbutamide]
- effect on ΔΨm, alone ([1]; tolbutamide 100 μM alone): no significant effect
- effect on Tat mediated rise in ΔΨm ([1]; tolbutamide 100 μM, Tat 0.1 or 2.5 μg/ml, 1 and 24 hours): blocked; also recorded: completely prevented
- toxicity, alone (cortical cultures; tolbutamide 100 μM alone): no toxicity
- effect on Tat's induction of apoptotic cell death (cortical cultures; tolbutamide 100 μM, Tat 0.1 or 2.5 μg/ml, 24 hours): attenuating apoptotic cell death; also recorded: partially attenuated

Compound: TNF-α
- effect on ΔΨm ([1]; neurotoxin alone): dose dependent increases

Compound: O=C(Cc1ccccc1)Nc1nc2ccc(Cl)cc2c2nc(-c3ccco3)nn12 [MRS 1220]
- prevention of the anti-inflammatory effects of CGS21680 or IB-MECA, respectively [2]: prevent

Compound: C[C@H](Cc1ccccc1)Nc1ncnc2c1ncn2[C@@H]1O[C@H](CO)[C@@H](O)[C@H]1O [R-PIA]
- effect on Tat-induced NO secretion [3]: no effect
- effect on Tat-induced iNOS expression ([2]; 1 μM): no effect

Compound: CNC(=O)[C@H]1O[C@@H](n2cnc3c(NCc4cccc(I)c4)ncnc32)[C@H](O)[C@@H]1O [IB-MECA]
- effect on Tat-induced NO secretion [3]: complete abrogation
- inhibition of Tat-induced iNOS expression ([2]; co-treatment with Tat): roughly 50%

Compound: Nc1nc(NCCc2ccc(O)cc2)nc2nc(-c3ccco3)nn12 [ZM241385, 4(2-[7-Amino-2-(2-furyl)[1,2,4]triazolo[2,3-a][1,3,5]triazin-5-ylamino]ethyl)phenol]
- effect on Tat-induced neuronal apoptosis [4]: protect neurons; also recorded: protects neurons against Tat-induced apoptosis
- prevention of the anti-inflammatory effects of CGS21680 or IB-MECA, respectively [2]: prevent

Compound: N#CC(C#N)=NNc1ccc(OC(F)(F)F)cc1 [FCCP, Trifluorocarbonylcyanide Phenylhydrazone]
- effect on mitochondrial TMRE/M signal [1]: substantially diminished; also recorded: loss of TMRM signal
- effect on ΔΨm [1]: normalizes ΔΨm back to baseline levels but not below
- Beading Prediction [5]: Prevented
- LTP Prediction [5]: Achieved
- Δψm [5]: Normalized
- Δψm ([5]; FCCP, no neurotoxin (vehicle)): Slightly
